These results are taken from PubChem BioAssay AID1259407 (Chemical Carcinogenesis Research Information System (CCRIS), 2018).

Activity calls are given as the source filed them. How the calls were made is not given here.

In this data set the test system is CCRIS mutagenicity, Ames/micronucleus/aberration tests. The data set is described as follows: CCRIS mutagenicity studies.
Where [1] appears, read: Test System: AMES SALMONELLA TYPHIMURIUM, Strain/Indicator: TA98, Metabolic Activation: NONE, Method: PREINCUBATION
Setting [2] is: Test System: AMES SALMONELLA TYPHIMURIUM, Strain/Indicator: TA100, Metabolic Activation: NONE, Method: PREINCUBATION

Take `CC(=O)c1cc2c(cc1C)C(C)(C)C(C)CC2(C)C` (stereo unspecified): the mutagenic call is, setting by setting: (Test System: AMES SALMONELLA TYPHIMURIUM, Strain/Indicator: TA97, Metabolic Activation: NONE, Method: PREINCUBATION) “inactive; negative”; (Test System: AMES SALMONELLA TYPHIMURIUM, Strain/Indicator: TA97, Metabolic Activation: NONE, Method: STANDARD PLATE) “inactive; negative”; (Test System: AMES SALMONELLA TYPHIMURIUM, Strain/Indicator: TA97, Metabolic Activation: RAT LIVER S-9, AROCLOR 1254, Method: STANDARD PLATE) “inactive; negative”; (Test System: AMES SALMONELLA TYPHIMURIUM, Strain/Indicator: TA97, Metabolic Activation: RAT LIVER S-9, PHENOBARBITAL, BETA-NAPHTHOFLAVONE, Method: PREINCUBATION) “inactive; negative”; (Test System: AMES SALMONELLA TYPHIMURIUM, Strain/Indicator: TA97, Metabolic Activation: RAT LIVER S-9, PHENOBARBITAL, BETA-NAPHTHOFLAVONE, Method: STANDARD PLATE) “inactive; negative”; under setting [1], “inactive; negative”. In addition, the mutagenic call is, setting by setting: (Test System: AMES SALMONELLA TYPHIMURIUM, Strain/Indicator: TA98, Metabolic Activation: NONE, Method: STANDARD PLATE) “inactive; negative”; (Test System: AMES SALMONELLA TYPHIMURIUM, Strain/Indicator: TA98, Metabolic Activation: RAT LIVER S-9, AROCLOR 1254, Method: STANDARD PLATE) “inactive; negative”; (Test System: AMES SALMONELLA TYPHIMURIUM, Strain/Indicator: TA98, Metabolic Activation: RAT LIVER S-9, PHENOBARBITAL, BETA-NAPHTHOFLAVONE, Method: PREINCUBATION) “inactive; negative”; (Test System: AMES SALMONELLA TYPHIMURIUM, Strain/Indicator: TA98, Metabolic Activation: RAT LIVER S-9, PHENOBARBITAL, BETA-NAPHTHOFLAVONE, Method: STANDARD PLATE) “inactive; negative”; under setting [2], “inactive; negative”; (Test System: AMES SALMONELLA TYPHIMURIUM, Strain/Indicator: TA100, Metabolic Activation: NONE, Method: STANDARD PLATE) “inactive; negative”. The mutagenic call is, setting by setting: (Test System: AMES SALMONELLA TYPHIMURIUM, Strain/Indicator: TA100, Metabolic Activation: RAT LIVER S-9, AROCLOR 1254, Method: STANDARD PLATE) “inactive; negative”; (Test System: AMES SALMONELLA TYPHIMURIUM, Strain/Indicator: TA100, Metabolic Activation: RAT LIVER S-9, PHENOBARBITAL, BETA-NAPHTHOFLAVONE, Method: PREINCUBATION) “inactive; negative”; (Test System: AMES SALMONELLA TYPHIMURIUM, Strain/Indicator: TA100, Metabolic Activation: RAT LIVER S-9, PHENOBARBITAL, BETA-NAPHTHOFLAVONE, Method: STANDARD PLATE) “inactive; negative”; (Test System: AMES SALMONELLA TYPHIMURIUM, Strain/Indicator: TA102, Metabolic Activation: NONE, Method: PREINCUBATION) “inactive; negative”; (Test System: AMES SALMONELLA TYPHIMURIUM, Strain/Indicator: TA102, Metabolic Activation: NONE, Method: STANDARD PLATE) “inactive; negative”; (Test System: AMES SALMONELLA TYPHIMURIUM, Strain/Indicator: TA102, Metabolic Activation: RAT LIVER S-9, AROCLOR 1254, Method: STANDARD PLATE) “inactive; negative”. For the same compound, the mutagenic call was “inactive; negative” (Test System: AMES SALMONELLA TYPHIMURIUM, Strain/Indicator: TA102, Metabolic Activation: RAT LIVER S-9, PHENOBARBITAL, BETA-NAPHTHOFLAVONE, Method: PREINCUBATION); “inactive; negative” (Test System: AMES SALMONELLA TYPHIMURIUM, Strain/Indicator: TA102, Metabolic Activation: RAT LIVER S-9, PHENOBARBITAL, BETA-NAPHTHOFLAVONE, Method: STANDARD PLATE); “inactive; negative” (Test System: AMES SALMONELLA TYPHIMURIUM, Strain/Indicator: TA1535, Metabolic Activation: NONE, Method: PREINCUBATION); “inactive; negative” (Test System: AMES SALMONELLA TYPHIMURIUM, Strain/Indicator: TA1535, Metabolic Activation: NONE, Method: STANDARD PLATE); “inactive; negative” (Test System: AMES SALMONELLA TYPHIMURIUM, Strain/Indicator: TA1535, Metabolic Activation: RAT LIVER S-9, PHENOBARBITAL, BETA-NAPHTHOFLAVONE, Method: PREINCUBATION); “inactive; negative” (Test System: AMES SALMONELLA TYPHIMURIUM, Strain/Indicator: TA1535, Metabolic Activation: RAT LIVER S-9, PHENOBARBITAL, BETA-NAPHTHOFLAVONE, Method: STANDARD PLATE). The mutagenic call is, setting by setting: (Test System: AMES SALMONELLA TYPHIMURIUM, Strain/Indicator: TA1537, Metabolic Activation: NONE, Method: PREINCUBATION) “inactive; negative”; (Test System: AMES SALMONELLA TYPHIMURIUM, Strain/Indicator: TA1537, Metabolic Activation: NONE, Method: STANDARD PLATE) “inactive; negative”; (Test System: AMES SALMONELLA TYPHIMURIUM, Strain/Indicator: TA1537, Metabolic Activation: RAT LIVER S-9, PHENOBARBITAL, BETA-NAPHTHOFLAVONE, Method: PREINCUBATION) “inactive; negative”; (Test System: AMES SALMONELLA TYPHIMURIUM, Strain/Indicator: TA1537, Metabolic Activation: RAT LIVER S-9, PHENOBARBITAL, BETA-NAPHTHOFLAVONE, Method: STANDARD PLATE) “inactive; negative”; (Test System: ESCHERICHIA COLI, Strain/Indicator: WP2 UVR A, Metabolic Activation: NONE, Method: PREINCUBATION) “inactive; negative”; (Test System: ESCHERICHIA COLI, Strain/Indicator: WP2 UVR A, Metabolic Activation: NONE, Method: STANDARD PLATE) “inactive; negative”. Besides, the mutagenic call was “inactive; negative” (Test System: ESCHERICHIA COLI, Strain/Indicator: WP2 UVR A, Metabolic Activation: RAT LIVER S-9, PHENOBARBITAL, BETA-NAPHTHOFLAVONE, Method: PREINCUBATION); “inactive; negative” (Test System: ESCHERICHIA COLI, Strain/Indicator: WP2 UVR A, Metabolic Activation: RAT LIVER S-9, PHENOBARBITAL, BETA-NAPHTHOFLAVONE, Method: STANDARD PLATE); “inactive; negative” (Test System: UDS RAT HEPATOCYTES, Metabolic Activation: NONE, Method: NET NUCLEAR GRAIN COUNT).
On to `O[C@@H]1[C@H]2O[C@H]2c2c(ccc3cc4c(ccc5ccccc54)nc23)[C@H]1O`, for which the mutagenic call was “active; positive” under setting [1]; “active; positive” under setting [2]; “active; positive” (Test System: CHINESE HAMSTER V-79, Strain/Indicator: V-79/8-AZAGUANINE, Metabolic Activation: NONE).
